# Measurements taken from patent US10507208B2, “Compositions, packaged pharmaceuticals, and methods of using hedgehog pathway modulators for the sensitization of resistant tumors” (priority 2015, dated 2019).
# Key:
# Format in all cases: cell-based
# [1] = system: HeLa (cervical cancer) cells; experiment: MTT assay, sensitization to vincristine or docetaxel in HeLa cells; settings: HeLa cells (pre-exposed to chemotherapy, second-line model); sensitizer 10, 1 or 0.1 micromolar; FIGS. 10I-10L
# [2] = system: H295 (adrenal cortical carcinoma) cells; experiment: MTT assay, sensitization to vincristine or docetaxel in H295 cells; settings: vincristine or docetaxel plus sensitizer at 10, 1 or 0.1 micromolar, versus chemotherapy alone, FIGS. 10A-10H
# Protocol: (§1) Cancer cells grown in vitro are treated with chemotherapy drugs alone or simultaneously with a hedgehog pathway modulator, including itraconazole. The difference in cell death between cells treated with chemotherapy drugs alone or in simultaneous treatment with the hedgehog pathway modulators determines the degree of synergistic killing effect of the combination therapy.
# (§2) Cell culture: The H295 cell line was grown in DMEM (Dulbecco's Modified Eagles Medium), supplemented with insulin, transferring, and selenium, 10% Fetal bovine serum, and gentamicin. The Kelly cell line was grown in DMEM, supplemented with 10% Fetal bovine serum, and gentamicin. Cell-based experiments were conducted in a 37 degree incubator supplemented with 5% carbon dioxide.
# (§3) In vitro Pharmacology: H295 cells were plated in a 96-well dish at a density of 10000 cells per well and Kelly cells were plated at a density of 2000 cells per well. After 16 hours, cells were treated with 2-fold dilutions of vincristine (VCR) or docetaxel (DTX).
# (§4) MTT Assay: Drug containing media from all of the dishes were discarded and MTT solution was added at a concentration of 5 micrograms per ml. The dishes were returned to the incubator for 4 hours.
# [3] = system: Kelly (neuroblastoma) cells; experiment: MTT assay, sensitization to vincristine or docetaxel in Kelly cells; settings: vincristine or docetaxel plus sensitizer at 10, 1 or 0.1 micromolar, versus chemotherapy alone, FIGS. 10A-10H
# Protocol: as §1, §2, §3, §4
smiles,measurement,setting,value
CC1=C2C[C@H]3[C@@H](CC=C4C[C@@H](O)CC[C@@]43C)[C@@H]2CC[C@]12O[C@@H]1C[C@H](C)CN[C@H]1[C@H]2C [cyclopamine],sensitization to vincristine and docetaxel,[1],did not respond
same,concentration of chemotherapy necessary to stop proliferation as well as kill half of the amount of cells (IC50),[2],remains less than concentration of chemotherapy alone
same,concentration of chemotherapy necessary to stop proliferation as well as kill half of the amount of cells (IC50),[3],remains less than concentration of chemotherapy alone
